Legend:
[1] = Selection of enhancers: inhaled insulin/enhancer powder in rat model, blood glucose levels; assay type: in vivo; settings: for Effect (decrease in blood glucose level): rat, inhalation; for usefulness as enhancer of insulin absorption in the lung: tested as enhancer in the method of the invention, rat model; for Effect (decrease in blood glucose level): key: +: significant decrease in blood glucose level; (+): moderate decrease in blood glucose level; −: no or very small decrease in blood glucose level
Method: Each of the compounds listed in Table III was tested for its ability to enhance uptake of insulin, and thus affect blood glucose levels, in a rat model. Various forms of insulin were employed: recombinant or semisynthetic human or bovine. […] The powder was administered to rats by inhalation, and the blood glucose levels of the rats were subsequently monitored. These levels were compared to the corresponding values obtained from rats which had inhaled insulin formulations without enhancer.

CaCo-2 cell monolayer = assay: In vitro CaCo-2 epithelial cell monolayer transport assay; assay type: in vitro ADME
Description: A standard in vitro assay utilizing an epithelial cell line, CaCo-2 (available through the American Type Culture Collection (ATCC), Rockville, Md., USA), has been developed to assess the ability of various enhancer compounds to promote transport of insulin and other markers across an epithelial cell monolayer, as a model for the epithelial cell layer which functions in the lung to separate the alveolus from the pulmonary blood supply. In this assay, the enhancer and insulin or other marker are dissolved in aqueous solution at various proportions and/or concentrations, and applied to the apical side of the cell monolayer. After 60 min incubation at 37° C. and 95% RH (relative humidity), the amount of the marker on the basolateral side of the cells is determined: for example, by use of a radioactively labelled marker. […] This concentration of sodium caprate (16 mM) was also found to promote absorption of insulin across the cell monolayer. The amount of insulin which passed across the monolayer doubled in the presence of 16 mM sodium caprate, compared to the amount in the absence of any enhancer. It is expected that at higher concentrations of sodium caprate, the permeability of the cells will be further increased; however, the potential cytotoxicity of sodium caprate may prevent the use of substantially higher concentrations of this particular enhancer.

[2] = Insulin combined with sodium caprate in various w/w proportions, in vivo models
Description: In general, it is desirable to keep the ratio of insulin to enhancer as high as possible, within the range that permits fast and efficient enhancement of insulin absorption. This is important in order to minimize the risk of adverse effects, both local and systemic, attributable to the enhancer. The optimal ratio of insulin to enhancer can be ascertained for any given enhancer by testing various proportions in in vivo models such as described herein. For example, insulin was combined with sodium caprate in the following w/w proportions: 50/50, 75/25, 82.5/17.5, and 90/10. […] Other enhancers may have higher or lower optimal concentrations relative to insulin, and each individual enhancer must therefore be separately tested.

[3] = Enhancer:Insulin:lactose 25:75:0
[4] = Enhancer:Insulin:lactose 4:4:92
[5] = Enhancer:Insulin:lactose 2:4:94

Compound	usefulness as enhancer of insulin absorption in the lung [1]	Effect (decrease in blood glucose level) [1, 4]	further results
CCCCCCCCCCCC(=O)[O-].[Na+] [Sodium laurate]	perform well		Effect (decrease in blood glucose level) [1, 3]: (+)
Dimethyl-β-cyclodextrin	absorption enhancing effect		Effect (decrease in blood glucose level) ([1]; Enhancer:Insulin:lactose 75:25:0): +
CCCCCCCCCCCCCC(=O)[O-].[Na+] [Sodium myristate]	perform well		Effect (decrease in blood glucose level) ([1]; Enhancer:Insulin:lactose 30:70:0): +
sodium salt of ethylenediaminetetraacetic acid	ineffective		
CCCCCCCCOC1O[C@H](CO)[C@@H](O)[C@H](O)[C@H]1O (stereo partly shown) [Octylglucopyranoside]	some absorption enhancing properties	(+)	
CCCCCCCC(=O)OCC(COP(=O)([O-])OCC[N+](C)(C)C)OC(=O)CCCCCCC (stereo not shown) [Dioctanoylphosphatidylcholine]			Effect (decrease in blood glucose level) [1, 5]: (+)
CCCCCCCC(=O)[O-].[Na+] [Sodium caprylate]			Effect (decrease in blood glucose level) [1, 3]: +
CCCCCCCCCC(=O)[O-].[K+] [Potassium caprate]	effective		Effect (decrease in blood glucose level) ([1]; Enhancer:Insulin:lactose 27:73:0): +
CCCCCCCC/C=C\CCCCCCCC(=O)[O-].[K+] [Potassium oleate]		+	
CCCCCCCCCC(=O)OC[C@H](COP(=O)([O-])OCC[N+](C)(C)C)OC(=O)CCCCCCCCC [Didecanoylphospatidylcholine]			Effect (decrease in blood glucose level) ([1]; Enhancer:Insulin:lactose 4:4:94): −
C[C@H](CCC(=O)NCC(=O)[O-])[C@H]1CC[C@H]2[C@@H]3[C@H](O)C[C@@H]4C[C@H](O)CC[C@]4(C)[C@H]3C[C@H](O)[C@]12C.[Na+] [Sodium glycocholate]	effectively enhance insulin absorption in the lung	+	
C[C@H](CCC(=O)NCCS(=O)(=O)O)[C@H]1CC[C@H]2[C@@H]3[C@H](O)C[C@@H]4C[C@H](O)CC[C@]4(C)[C@H]3C[C@H](O)[C@]12C [Sodium taurocholate]	effectively enhance insulin absorption in the lung	+	
C[C@H](CCC(=O)[O-])[C@H]1CC[C@H]2[C@@H]3[C@@H](O)C[C@@H]4C[C@H](O)CC[C@]4(C)[C@H]3CC[C@]12C.[Na+] [Sodium ursodeoxycholate]	effectively enhance insulin absorption in the lung	+	
Lysine caprate	effective		Effect (decrease in blood glucose level) ([1]; Enhancer:Insulin:lactose 35:65:0): +
CC(=O)OC1CC2(C)C(CC(O)C3C4(C)CCC(O)C(C)C4CCC32C)C1=C(CCCC(C)C)C(=O)NCCS(=O)(=O)O (stereo not shown) [Sodium taurodihydrofusidate]	effectively enhance insulin absorption in the lung		Effect (decrease in blood glucose level) [1, 5]: +
CCCCCCCCCC(=O)[O-].[Na+] [Sodium caprate]	perform well	+	Effect (decrease in blood glucose level) ([1]; Enhancer:Insulin:lactose 10:90:0): (+); Effect (decrease in blood glucose level) ([1]; Enhancer:Insulin:lactose 17.5:82.5:0): (+); Effect (decrease in blood glucose level) [1, 3]: +; amount of insulin which passed across the monolayer, compared to absence of any enhancer (CaCo-2 cell monolayer; 16 mM sodium caprate): doubled; amount of marker (mannitol) which appears on the basolateral side, insulin added (CaCo-2 cell monolayer; 60 min at 37° C., 1:3 sodium caprate:insulin by weight, FIG. 8): true even when insulin is added; amount of marker (mannitol) which appears on the basolateral side (CaCo-2 cell monolayer; 60 min at 37° C., up to 16 mM sodium caprate, FIG. 7): dependent upon the concentration of enhancer used; improvement in absorption of insulin ([2]; insulin/sodium caprate w/w 50/50 (50% sodium caprate)): Significant improvement; improvement in absorption of insulin ([2]; insulin/sodium caprate w/w 75/25 (25% sodium caprate)): Significant improvement; improvement in absorption of insulin ([2]; insulin/sodium caprate w/w 82.5/17.5 (17.5% sodium caprate)): intermediate; improvement in absorption of insulin ([2]; insulin/sodium caprate w/w 90/10 (10% sodium caprate)): poor improvement; lowest effective concentration of sodium caprate ([2]; proportion of enhancer relative solely to insulin, 'probably 20-25%'): 15-25%
Lysophosphatidylcholine	effective enhancer	+	

From US6610653B1, “Therapeutic preparation for inhalation” (priority 1994, dated 2003)
